{"source": "paper PMC7610864", "about": "“The Roles of Type 2 Cytotoxic T Cells in Inflammation, Tissue Remodeling, and Prostaglandin (PG) D2 Production Are Attenuated by PGD2 Receptor 2 Antagonism” (The Journal of Immunology Author Choice, 2021)", "target": "T1, PGD2 receptor 2 (DP2) (Homo sapiens, UniProt Q9Y5Y4)", "T1 construct": "gene PTGDR2", "T1 sequence (Q9Y5Y4 1-395)": "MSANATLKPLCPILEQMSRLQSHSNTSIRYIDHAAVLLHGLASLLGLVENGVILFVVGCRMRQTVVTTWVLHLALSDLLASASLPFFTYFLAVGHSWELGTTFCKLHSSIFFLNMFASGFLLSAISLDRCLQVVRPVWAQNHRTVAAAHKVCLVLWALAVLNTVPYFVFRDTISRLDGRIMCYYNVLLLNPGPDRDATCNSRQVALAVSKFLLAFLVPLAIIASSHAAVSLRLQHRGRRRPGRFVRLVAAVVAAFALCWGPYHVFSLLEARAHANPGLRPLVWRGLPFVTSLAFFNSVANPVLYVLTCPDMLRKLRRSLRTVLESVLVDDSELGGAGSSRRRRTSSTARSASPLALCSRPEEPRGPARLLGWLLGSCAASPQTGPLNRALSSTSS", "data": [{"smiles": "Cc1c(CC(=O)O)c2cccnc2n1Cc1ccc(S(C)(=O)=O)cc1C(F)(F)F", "note": "[fevipiprant]", "values": [{"measurement": "IC50", "result": "3.5 ± 3.6", "unit": "nM"}]}]}
